According to patent US6911537B2, “Xenobiotic compound modulated expression systems and uses therefor” (The Salk Institute for Biological Studies, priority 1998, dated 2005):
Entries after “also recorded” stand apart in the source; their conditions may differ. Read-outs that look alike come from different tables or passages of the source.

Legend:
[1] = molecular target: T1, endogenous PXR (Rattus norvegicus, UniProt Q9R1A7); settings: hepatocytes
T1 sequence (Q9R1A7 1-431): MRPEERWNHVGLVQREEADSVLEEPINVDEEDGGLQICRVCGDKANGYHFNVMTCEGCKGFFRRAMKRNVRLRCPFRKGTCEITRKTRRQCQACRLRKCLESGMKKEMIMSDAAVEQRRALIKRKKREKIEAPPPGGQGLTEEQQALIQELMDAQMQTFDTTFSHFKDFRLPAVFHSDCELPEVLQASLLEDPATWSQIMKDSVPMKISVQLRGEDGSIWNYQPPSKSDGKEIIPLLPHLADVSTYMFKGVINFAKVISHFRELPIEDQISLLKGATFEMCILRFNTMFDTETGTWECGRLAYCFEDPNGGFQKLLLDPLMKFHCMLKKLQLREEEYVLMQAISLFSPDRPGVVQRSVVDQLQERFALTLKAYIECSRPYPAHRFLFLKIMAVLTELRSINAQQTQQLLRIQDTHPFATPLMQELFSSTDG
Description: (§1) The PCR-amplified sequences and target mutagenesis were confirmed by DNA sequencing.
(§2) All compounds were purchased from Sigma.
(§3) A panel of natural and synthetic steroid and nonsteroid compounds were tested for their ability to activate SXR and/or PXR in transfection-based assays using primary rat hepatocytes as recipient cells and the cellular promoters of the rat CYP3A23 gene or the human CYP3A4 gene as reporters.

[2] = molecular target: T2, hGRα (Homo sapiens, UniProt P04150); assay: Activation of hGRα on MTV-luc; format: cell-based; settings: 50 μM (FIG. 7D; 50 mM in FIG. 5 legend)
T2 construct: expressed in transfected cells
T2 sequence (P04150 1-777): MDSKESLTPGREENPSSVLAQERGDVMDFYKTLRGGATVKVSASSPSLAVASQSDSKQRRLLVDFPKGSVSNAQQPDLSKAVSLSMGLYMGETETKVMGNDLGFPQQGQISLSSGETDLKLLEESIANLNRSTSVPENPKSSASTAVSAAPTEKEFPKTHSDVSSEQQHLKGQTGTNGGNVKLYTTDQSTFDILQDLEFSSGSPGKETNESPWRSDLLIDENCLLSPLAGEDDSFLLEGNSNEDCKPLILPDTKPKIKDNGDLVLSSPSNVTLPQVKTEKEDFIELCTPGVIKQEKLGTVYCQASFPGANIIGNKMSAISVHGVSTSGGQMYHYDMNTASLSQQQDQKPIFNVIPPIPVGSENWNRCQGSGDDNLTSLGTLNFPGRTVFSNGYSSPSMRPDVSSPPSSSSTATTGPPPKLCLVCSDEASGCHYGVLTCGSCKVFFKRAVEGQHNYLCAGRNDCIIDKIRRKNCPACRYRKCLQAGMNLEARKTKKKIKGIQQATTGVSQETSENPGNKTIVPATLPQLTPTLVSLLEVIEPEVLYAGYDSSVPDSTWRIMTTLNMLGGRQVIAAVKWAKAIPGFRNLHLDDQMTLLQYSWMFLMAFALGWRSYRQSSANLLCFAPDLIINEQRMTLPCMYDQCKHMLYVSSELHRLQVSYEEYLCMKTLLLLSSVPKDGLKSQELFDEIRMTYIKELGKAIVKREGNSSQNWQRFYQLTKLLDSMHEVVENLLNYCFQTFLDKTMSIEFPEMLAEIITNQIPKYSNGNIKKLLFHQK
Description: FIG. 5 further illustrates the broad ligand specificity of SXR. […] 6β-hydroxylated, non-reduced, 5α and 5β reduced forms of corticosterone were tested for their ability to activate GAL-SXR on tk(MH100)4-luc and hGRa on MTV-luc at […].
6β-hydroxylated, non-reduced, 5α and 5β reduced forms of corticosterone were tested for their ability to activate GAL-hSXR on tk(MH100)4-luc (lefthand group of 5 columns) and hGRα on MTV-luc at 50 μM (righthand group of 5 columns). […] In each group of columns: column 1=solvent; column 2=corticosterone; column 3=5α-tetrahydrocorticosterone; column 4=5β-tetrahydrocorticosterone; and column 5=6β-OH-corticosterone.

[3] = molecular target: T3, SXR (Homo sapiens, UniProt O75469)
T3 sequence (O75469 1-434): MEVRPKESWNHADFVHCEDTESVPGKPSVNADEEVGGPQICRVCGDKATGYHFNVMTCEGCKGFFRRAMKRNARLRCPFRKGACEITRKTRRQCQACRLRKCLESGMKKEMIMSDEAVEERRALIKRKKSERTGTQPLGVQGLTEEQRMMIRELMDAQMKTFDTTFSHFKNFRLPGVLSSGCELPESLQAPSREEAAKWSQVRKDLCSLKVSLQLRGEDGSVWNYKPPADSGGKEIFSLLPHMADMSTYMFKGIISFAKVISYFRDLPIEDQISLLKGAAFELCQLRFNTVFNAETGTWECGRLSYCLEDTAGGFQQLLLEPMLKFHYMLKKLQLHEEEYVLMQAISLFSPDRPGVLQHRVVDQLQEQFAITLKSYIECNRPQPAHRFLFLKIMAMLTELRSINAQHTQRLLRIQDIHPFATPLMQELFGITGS
T3 sequence (P19793 1-462 partner): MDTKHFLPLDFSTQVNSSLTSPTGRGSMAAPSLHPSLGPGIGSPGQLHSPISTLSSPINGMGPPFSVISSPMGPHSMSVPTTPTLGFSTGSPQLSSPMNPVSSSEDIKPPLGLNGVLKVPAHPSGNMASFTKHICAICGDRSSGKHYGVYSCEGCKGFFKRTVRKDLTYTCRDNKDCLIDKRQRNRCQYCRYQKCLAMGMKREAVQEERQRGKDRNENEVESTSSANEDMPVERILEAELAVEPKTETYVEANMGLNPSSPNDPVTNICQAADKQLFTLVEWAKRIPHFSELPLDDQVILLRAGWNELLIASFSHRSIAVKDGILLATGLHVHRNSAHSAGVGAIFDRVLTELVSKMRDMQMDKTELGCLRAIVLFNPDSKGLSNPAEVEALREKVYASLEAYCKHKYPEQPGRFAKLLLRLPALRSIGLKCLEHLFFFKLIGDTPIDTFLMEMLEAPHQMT
Description: (§4) Thus, the protein coding region of SXR was PCR amplified and subcloned into NcoI and BamH1 sites of the vector pCDG1 (see Blumberg et al., supra). During this process the putative initiator Leu was converted to Met with a Kozak consensus sequence CCATGG.

[4] = molecular target: T4, SXR (Homo sapiens, UniProt O75469); remark: listed apart in the source
T4 sequence (O75469 1-434): T3 sequence (O75469 1-434)
Description: as §1, §2, §3

[5] = test system: CYP3A11 gene; settings: single dose 24 h before sacrifice
Description: The animals were allowed free access to food and water at all times. […] When necessary, mice were treated with a single intraperitoneal injection of DEX (50 mg/kg), PCN (40 mg/kg), or CTZ (50 mg/kg).
To detect specific transcripts, [^32P]-cDNA probes labeled by Random Primer Labeling Kit (Boringher) were hybridized to the membranes. The probe used to detect transgene contains both the SXR cDNA and the SV40 sequences. […] The filters were subsequently stripped and rehybridized with a murine glyceraldehyde-3-phosphate dehydrogenase (GAPDH) cDNA probe for RNA loading normalization.
Tissues were harvested 24 h later and subjected to Northern blot analysis.

[6] = molecular target: T3, SXR; assay: Transfection-based reporter assay in CV-1 cells, GAL4-SXR or full-length SXR; design: Activation of SXR response elements (DR-3, DR-4, DR-5) by full-length SXR: dose or concentration left out as unconfirmed; settings: for Activation of human SXR by compounds known to induce CYP3A4: 50 μM, tamoxifen 5 μM (FIG. 7A); for Activation of SXR in transfection-based assays: GAL4-SXR LBD chimera or full-length SXR, CV-1 cells, steroids at high doses, up to 50 mM [sic]; for Activation of SXR response elements (DR-3, DR-4, DR-5) by full-length SXR: cotransfection, panel of steroids as printed (FIG. 4)
Description: as §4

Compound: Cc1ccc2cc3c(ccc4ccccc43)c3c2c1CC3 [3MC, 3-methylcholanthrene]
- Activation of CYP3A23 promoter reporter in the absence of SXR [1]: fail to activate or behave as poor activators

Compound: C[C@]12CC[C@@H](O)C[C@@H]1CC[C@@H]1[C@@H]2[C@@H](O)C[C@]2(C)[C@@H](C(=O)CO)CC[C@@H]12 [5α, 5α-tetrahydrocorticosterone]
- Activation of hGRα on MTV-luc by corticosterone derivatives [2]: slightly active
- Activation of GAL-SXR on tk(MH100)4-luc by corticosterone derivatives [3]: effective SXR activators

Compound: C[C@]12CCC(O)C[C@H]1CC[C@@H]1[C@@H]2[C@@H](O)C[C@]2(C)[C@@H](C(=O)CO)CC[C@@H]12 (stereo partly drawn) [5β, 5β-tetrahydrocorticosterone]
- Activation of hGRα on MTV-luc by corticosterone derivatives [2]: completely inactive
- Activation of GAL-SXR on tk(MH100)4-luc by corticosterone derivatives [3]: effective SXR activators

Compound: C[C@]12C[C@H](O)[C@H]3[C@@H](C[C@@H](O)C4=CC(=O)CC[C@@]43C)[C@@H]1CC[C@@H]2C(=O)CO [6β-hydroxy corticosterone]
- Activation of hGRα on MTV-luc by corticosterone derivatives [2]: slightly active

Compound: CCCCC/C=C/C=C1/C(=O)C=C[C@@H]1C/C=C\CCCC(=O)O [15d-PGJ2]
- Activation of CYP3A23 promoter reporter by PPARγ ligands in the presence of SXR [4]: fail to activate

Compound: Clc1ccccc1C(c1ccccc1)(c1ccccc1)n1ccnc1 [CTZ, clotrimazole]
- Activation of CYP3A23 promoter reporter with mutated DR-3 element (DR3/M1, DR3/M2) [4]: abolished
- Inducibility of CYP3A23 promoter reporter with DR-3 replaced by IR-6 element (DR3/IR6) [4]: rescueS the inducibility
- Induction of liver CYP3A11 expression in Alb-SXR transgenic mice ([5]; RIF 5 mg/kg, BRL 20 mg/kg, troglitazone and ciglitazone 150 mg/kg by gavage, CTZ 50 mg/kg, PCN 40 mg/kg i.p.): higher level
- Induction of liver CYP3A11 expression in wild type / nontransgenic mice ([5]; same doses as in transgenic mice): moderate level

Compound: CC/C(=C(/CC)c1ccc(O)cc1)c1ccc(O)cc1 [DES, diethylstilbestrol]
- Activation of human SXR by compounds known to induce CYP3A4 [6]: most potent activators

Compound: C[C@]12CCC(=O)C=C1CC[C@@H]1[C@@H]2[C@@H](O)C[C@]2(C=O)[C@@H](C(=O)CO)CC[C@@H]12 [aldosterone]
- Activation of SXR in transfection-based assays [6]: inactive
- Activation of SXR response elements (DR-3, DR-4, DR-5) by full-length SXR [6]: little response

Compound: C[C@]12C[C@H](O)[C@H]3[C@@H](CCC4=CC(=O)CC[C@@]43C)[C@@H]1CC[C@@H]2C(=O)CO [corticosterone]
- Activation of human SXR by compounds known to induce CYP3A4 [6]: most potent activators
- Activation of SXR in transfection-based assays [6]: most potent and efficacious activator; also recorded: activated
- Activation of SXR response elements (DR-3, DR-4, DR-5) by full-length SXR [6]: among the best activators

Compound: C[C@]12CCC(=O)C=C1CC[C@@H]1[C@@H]2[C@@H](O)C[C@@]2(C)[C@H]1CC[C@]2(O)C(=O)CO [cortisol]
- Activation of SXR response elements (DR-3, DR-4, DR-5) by full-length SXR [6]: little response

Compound: C[C@]12CCC(=O)C=C1CC[C@@H]1[C@@H]2C(=O)C[C@@]2(C)[C@H]1CC[C@]2(O)C(=O)CO [cortisone]
- Activation of SXR response elements (DR-3, DR-4, DR-5) by full-length SXR [6]: intermediate activators; also recorded: intermediate group

Compound: O=c1oc2cc(O)ccc2c2oc3cc(O)ccc3c12 [coumestrol]
- Activation of human SXR by compounds known to induce CYP3A4 [6]: most potent activators

Compound: C[C@]12CCC(=O)C[C@@H]1CC[C@@H]1[C@@H]2CC[C@]2(C)[C@@H](O)CC[C@@H]12 [dihydrotestosterone]
- Activation of SXR in transfection-based assays [3]: remarkably effective activators
- Activation of SXR response elements (DR-3, DR-4, DR-5) by full-length SXR [3]: among the best activators
- Activation of human SXR by compounds known to induce CYP3A4 [3]: activate

Compound: Oc1ccc([C@H]2COc3cc(O)ccc3C2)cc1 [equol]
- Activation of human SXR by compounds known to induce CYP3A4 [6]: activate

Compound: O=c1c(-c2ccc(O)cc2)coc2cc(O)cc(O)c12 [genistein]
- Activation of human SXR by compounds known to induce CYP3A4 [6]: activate

Compound: CCC1(c2ccccc2)C(=O)NC(=O)NC1=O [phenobarbital]
- Induction of CYP3A23 promoter reporter with co-transfection of SXR [4]: significant induction
- Activation of CYP3A23 promoter reporter in the absence of SXR [1]: fail to activate or behave as poor activators

Compound: CC(=O)[C@H]1CC[C@H]2[C@@H]3CC=C4C[C@@H](O)CC[C@]4(C)[C@H]3CC[C@]12C [pregnenolone]
- Induction of CYP3A23 promoter reporter with co-transfection of SXR [4]: significant induction
- Activation of CYP3A23 promoter reporter in the absence of SXR [1]: fail to activate or behave as poor activators
- Activation of SXR response elements (DR-3, DR-4, DR-5) by full-length SXR [6]: among the best activators

Compound: CC(=O)[C@H]1CC[C@H]2[C@@H]3CCC4=CC(=O)CC[C@]4(C)[C@H]3CC[C@]12C [progesterone]
- Activation of CYP3A23 promoter reporter in the absence of SXR [1]: fail to activate or behave as poor activators

Compound: CC(=O)S[C@@H]1CC2=CC(=O)CC[C@]2(C)[C@H]2CC[C@@]3(C)[C@@H](CC[C@@]34CCC(=O)O4)[C@H]12 [spironolactone]
- Activation of human SXR by compounds known to induce CYP3A4 [3]: activate

Compound: estrogen
- Activation of SXR in transfection-based assays [6]: activated
